The record followed here is patent US20260306465A1, “COMPOUNDS FOR TREATING HEREDITARY SPASTIC PARAPLEGIA” (The Children's Medical Center Corporation, priority 2023, published 2026).

The subject of this assay is AP4B1-KO SH-SY5Y cells. The assay is described as follows: Testing of compounds for AP-4 deficiency: ATG9A translocation in AP4B1-KO SH-SY5Y cells. The note with it: 24 h, std error in own column.

Method: SH-SY5Y cell culture. […] Media changes were done every 2-3 days and drugs were administered 24 h before fixation.
Immunocytochemistry. […] SH-SY5Y cells were fixed using 4% PFA, permeabilized with 0.1% saponin in PBS and blocked in 1% BSA/0.01% saponin (blocking solution) in PBS. Primary antibody (diluted in blocking solution) was added for 1 h at room temperature. […] Plates were then gently washed three times with PBS and protected from light.
High-content imaging and automated image analysis. […] Up to 36 fields were acquired in a 6×6 format (96-well plate) using a 40×S Plan Fluor objective (NA 0.60 m, WB 3.6-2.8 mm). Image analysis was performed using a customized image analysis pipeline in MetaXpress (Molecular Devices): Briefly, cells were identified based on the presence of DAPI signal inside a TUBB3-positive cell body. […] ATG9A fluorescence intensity (F.U.) was measured in both compartments in each cell, and the ATG9A ratio was calculated by dividing the ATG9A fluorescence intensity inside the TGN by the ATG9A fluorescence intensity in the remaining cell body:
Z′-factor robust values and strictly standardized median difference (SSMD) were calculated for each plate and only plates that met the predefined quality metrics of a Z′-factor robust 0.3 and SSMD 3 were included in analyses.

Turning to `Oc1cccc2sc(N3CCc4[nH]cnc4C3)nc12` [Compound 10], the “EC50 (z atg9a ratio)” value was 4.418.

Consider `Cc1cccc2sc(N3CCc4[nH]cnc4C3)nc12` [Compound 17], for which the “EC50 (z atg9a ratio)” value turned out to be 1.185.
